In patent US20230140290A1, “SALICYLAMIDE DERIVATIVES AND RELATED METHODS OF MAKING” (THE BOARD OF REGENTS OF THE UNIVERSITY OF TEXAS SY, priority 2020, published 2023):
Where a name gives a salt, the structure may show the parent alone.

Tests used:
HAdV5-GFP = assay: Plaque assay (inhibition of HAdV plaque formation); assay type: cell-based, HAdV-5; conditions: for inhibition at 10 µM: read-out: Plaque Assay (%) Inhibition (10 μM); for IC50: read-out: Plaque Assay IC50 (μM), HAdV5-GFP, low MOI, 293β5 cell line; for Selectivity index (SI): ratio of CC50 to IC50 in plaque assay; for EC50: read-out: EC50 (plaque assay)
Procedure: Plaque Assay. […] When cells reached 80-90% confluency, they were infected with HAdV5-GFP (0.06 vp/cell) and rocked for 2 h at 37° C. After the incubation the inoculum was removed, and the cells were washed once with PBS.
Plaque Assay. Compounds were tested using low MOI infections (0.06 vp/cell) and at concentrations of 10 μM and in a dose-response assay ranging from 10 to 0.3 μM in a plaque assay. […] When cells reached 80-90% confluency, they were infected with HAdV5-GFP (0.06 vp/cell) and rocked for 2 h at 37° C. After the incubation the inoculum was removed, and the cells were washed once with PBS. […] The mixture also contained the compounds in concentrations ranging from 10 to 0.3 μM.

A549 cells = assay: Cytotoxicity assay (AlamarBlue); conditions: read-out: CC50 (μM), cytotoxic concentration 50%; A549 cell line, 48 h
Procedure: Cytotoxicity Assay. The cytotoxicity of the compounds was analyzed by commercial kit AlamarBlue® (Invitrogen, Ref. DAL1025). A549 cells at a density of 5×10^3 cells per well in 96-well plates were seeded. […] Cells were then incubated at 37° C. for 48 h following the kit protocol. The cytotoxic concentration 50 (CC50) value was obtained using the statistical package GraphPad Prism. This assay was performed in duplicate.

## O=C(Nc1ccc([N+](=O)[O-])c(Cl)c1)c1cc(Cl)ccc1O [Compound 10, 5-Chloro-N-(3-chloro-4-nitrophenyl)-2-hydroxybenzamide]
HAdV5-GFP
  inhibition at 10 µM: 100%
  IC50: 1 µM

## O=C(Nc1cc([N+](=O)[O-])ccc1F)c1cc(Cl)ccc1O [Compound 12, 5-Chloro-N-(2-fluoro-5-nitrophenyl)-2-hydroxybenzamide]
A549 cells
  CC50: 8.1 ± 3.2 µM
HAdV5-GFP
  Selectivity index (SI): 26.2
  inhibition at 10 µM: 100%
  IC50: 0.31 µM

## O=C(Nc1ccc(F)c(F)c1)c1cc(Cl)ccc1O [Compound 15, 5-Chloro-N-(3,4-difluorophenyl)-2-hydroxybenzamide]
A549 cells
  CC50: 8 µM
HAdV5-GFP
  Selectivity index (SI): 29.6
  inhibition at 10 µM: 100%
  IC50: 0.27 µM

## O=C(Nc1cc(C(F)(F)F)cc(C(F)(F)F)c1)c1cc(Cl)ccc1O [Compound 16, N-(3,5-Bis(trifluoromethyl)phenyl)-5-chloro-2-hydroxybenzamide]
A549 cells
  CC50: 4.1 µM
HAdV5-GFP
  Selectivity index (SI): 68.3
  inhibition at 10 µM: 100%
  IC50: 0.06 µM

## O=C(Nc1cc(F)cc(C(F)(F)F)c1)c1ccccc1O [Compound 18, N-(3-Fluoro-5-(trifluoromethyl)phenyl)-2-hydroxybenzamide]
A549 cells
  CC50: 16.3 µM
HAdV5-GFP
  inhibition at 10 µM: 98.7 ± 1.9%
  IC50: 1.07 µM

## Cc1ccc(O)c(C(=O)Nc2cc(F)cc(C(F)(F)F)c2)c1 [Compound 19, N-(3-Fluoro-5-(trifluoromethyl)phenyl)-2-hydroxy-5-methylbenzamide]
A549 cells
  CC50: 15.2 µM
HAdV5-GFP
  inhibition at 10 µM: 98 ± 2.8%
  IC50: 0.65 µM

## O=C(Nc1cc(F)cc(C(F)(F)F)c1)c1cccc(Cl)c1 [Compound 21, 3-Chloro-N-(3-fluoro-5-(trifluoromethyl)phenyl)benzamide]
A549 cells
  CC50: 38.6 ± 1.7 µM
HAdV5-GFP
  Selectivity index (SI): 6.9
  inhibition at 10 µM: 99.3 ± 0.9%
  IC50: 5.61 ± 0.37 µM

## O=C(NCc1ccc(F)cc1F)c1cc(Cl)ccc1O [Compound 33, 5-Chloro-N-(2,4-difluorobenzyl)-2-hydroxybenzamide]
HAdV5-GFP
  inhibition at 10 µM: 74.7 ± 6.9%

## O=C(NCc1ccc(F)c(F)c1)c1cc(Cl)ccc1O [Compound 34, 5-Chloro-N-(3,4-difluorobenzyl)-2-hydroxybenzamide]
HAdV5-GFP
  inhibition at 10 µM: 37.2 ± 23.4%

## O=C(NCc1cccc(Cl)c1)c1cc(Cl)ccc1O [Compound 39, 5-Chloro-N-(3-chlorobenzyl)-2-hydroxybenzamide]
HAdV5-GFP
  inhibition at 10 µM: 72 ± 1.5%

## O=C(NCc1ccc(F)cc1)c1cc(Cl)ccc1O [Compound 40, 5-Chloro-N-(4-fluorobenzyl)-2-hydroxybenzamide]
HAdV5-GFP
  inhibition at 10 µM: 72 ± 3%

## CN(Cc1ccc(F)cc1)C(=O)c1cc(Cl)ccc1O [Compound 41, 5-Chloro-N-(4-fluorobenzyl)-2-hydroxy-N-methylbenzamide]
HAdV5-GFP
  inhibition at 10 µM: 0%

## O=C(NCc1ccccc1)c1cc(Cl)ccc1O [Compound 45, N-Benzyl-5-chloro-2-hydroxybenzamide]
HAdV5-GFP
  inhibition at 10 µM: 12.7 ± 2.9%

## COc1ccc([C@@H](C)NC(=O)c2cc(Cl)ccc2O)cc1 [Compound 50, (R)-5-Chloro-2-hydroxy-N-(1-(4-methoxyphenyl)ethyl)benzamide]
HAdV5-GFP
  inhibition at 10 µM: 33.5 ± 14.8%

## O=C(Cc1cc(Cl)ccc1O)Nc1ccc([N+](=O)[O-])cc1Cl [Compound 54, 2-(5-Chloro-2-hydroxyphenyl)-N-(2-chloro-4-nitrophenyl)acetamide]
HAdV5-GFP
  inhibition at 10 µM: 0%

## CC(C)C[C@H](NC(=O)c1cc(Cl)ccc1O)C(=O)Nc1ccc([N+](=O)[O-])cc1Cl [Compound 61, (S)-5-Chloro-N-(1-((2-chloro-4-nitrophenyl)amino)-4-methyl-1-oxopentan-2-yl)-2-hydroxybenzamide]
HAdV5-GFP
  inhibition at 10 µM: 17.4 ± 12.3%

## CSCC[C@H](NC(=O)c1cc(Cl)ccc1O)C(=O)Nc1ccc([N+](=O)[O-])cc1Cl [Compound 63, (S)-5-Chloro-N-(1-((2-chloro-4-nitrophenyl)amino)-4-(methylthio)-1-oxobutan-2-yl)-2-hydroxybenzamide]
HAdV5-GFP
  inhibition at 10 µM: 34.8 ± 16.9%

## CC(C)[C@H](NC(=O)c1cc(Cl)ccc1O)C(=O)Nc1ccc(C(F)(F)F)cc1Cl [Compound 66, (S)-5-Chloro-N-(1-((2-chloro-4-(trifluoromethyl)phenyl)amino)-3-methyl-1-oxobutan-2-yl)-2-hydroxybenzamide]
HAdV5-GFP
  inhibition at 10 µM: 24.8 ± 12.3%

## CS(=O)(=O)Nc1ccc(Cl)cc1C(=O)N[C@@H](Cc1ccccc1)C(=O)Nc1ccc([N+](=O)[O-])cc1Cl [Compound 71, (S)-5-Chloro-N-(1-((2-chloro-4-nitrophenyl)amino)-1-oxo-3-phenylpropan-2-yl)-2-(methylsulfonamido)benzamide]
HAdV5-GFP
  inhibition at 10 µM: 88.9 ± 15.7%

## Nc1ccc(NC(=O)c2cc(Cl)ccc2O)c(Cl)c1 [Compound 76, N-(4-Amino-2-chlorophenyl)-5-chloro-2-hydroxybenzamide]
HAdV5-GFP
  inhibition at 10 µM: 0%

## CC(=O)Nc1ccc(NC(=O)c2cc(Cl)ccc2O)c(Cl)c1 [Compound 77, N-(4-Acetylamino-2-chlorophenyl)-5-chloro-2-hydroxybenzamide]
HAdV5-GFP
  inhibition at 10 µM: 0%

## NCCNc1ccc(NC(=O)c2cc(Cl)ccc2O)c(Cl)c1 [Compound 123, N-(4-((2-Aminoethyl)amino)-2-chlorophenyl)-5-chloro-2-hydroxybenzamide hydrochloride]
HAdV5-GFP
  inhibition at 10 µM: 19.4 ± 12.2%

## O=C(Nc1ccc(NC2CCNCC2)cc1Cl)c1cc(Cl)ccc1O [Compound 125, 5-Chloro-N-(2-chloro-4-(piperidin-4-ylamino)phenyl)-2-hydroxybenzamide hydrochloride]
HAdV5-GFP
  inhibition at 10 µM: 39.7 ± 13.5%

## O=C(Nc1ccc(NCC2CCNCC2)cc1Cl)c1cc(Cl)ccc1O [Compound 127, 5-Chloro-N-(2-chloro-4-((piperidin-4-ylmethyl)amino)phenyl)-2-hydroxybenzamide]
HAdV5-GFP
  inhibition at 10 µM: 20.6 ± 10.3%

## CN1CCC(CNc2ccc(NC(=O)c3cc(Cl)ccc3O)c(Cl)c2)CC1 [Compound 128, 5-Chloro-N-(2-chloro-4-(((1-methylpiperidin-4-yl)methyl)amino)phenyl)-2-hydroxybenzamide]
HAdV5-GFP
  inhibition at 10 µM: 0%

## O=C(Nc1ccc(NCCN2CCOCC2)cc1Cl)c1cc(Cl)ccc1O [Compound 129, 5-Chloro-N-(2-chloro-4-((2-morpholinoethyl)amino)phenyl)-2-hydroxybenzamide]
HAdV5-GFP
  inhibition at 10 µM: 1.4 ± 12.3%

## O=C(Nc1ccc(NC2CCCC2)cc1Cl)c1ccccc1O [Compound 135, N-(2-Chloro-4-(cyclopentylamino)phenyl)-2-hydroxybenzamide]
HAdV5-GFP
  inhibition at 10 µM: 77.5%

## O=C(Nc1ccc(NC2CCCC2)cc1Cl)c1cccc(Cl)c1 [Compound 137, 3-Chloro-N-(2-chloro-4-(cyclopentylamino)phenyl)benzamide]
HAdV5-GFP
  inhibition at 10 µM: 82.9%

## COc1ccc(Cl)cc1C(=O)Nc1ccc(NC2CCCC2)cc1Cl [Compound 138, 5-Chloro-N-(2-chloro-4-(cyclopentylamino)phenyl)-2-methoxybenzamide]
HAdV5-GFP
  inhibition at 10 µM: 78.9%

## CN1CCC(Oc2ccc(Cl)cc2C(=O)Nc2ccc(NC3CCCC3)cc2Cl)CC1 [Compound 139, 5-Chloro-N-(2-chloro-4-(cyclopentylamino)phenyl)-2-((1-methylpiperidin-4-yl)oxy)benzamide]
HAdV5-GFP
  inhibition at 10 µM: 0%

## O=C(Cc1cc(Cl)ccc1O)Nc1ccc(NC2CCCC2)cc1Cl [Compound 146, 2-(5-Chloro-2-hydroxyphenyl)-N-(2-chloro-4-(cyclopentylamino)phenyl)acetamide]
HAdV5-GFP
  inhibition at 10 µM: 85.8 ± 5.8%

## O=C(NC1CCCCCC1)c1cc(Cl)ccc1O [Compound 158, 5-Chloro-N-cycloheptyl-2-hydroxybenzamide]
HAdV5-GFP
  EC50: 4700 nM

## O=C(NC1CCOCC1)c1cc(Cl)ccc1O [Compound 159, 5-Chloro-2-hydroxy-N-(tetrahydro-2H-pyran-4-yl)benzamide]
HAdV5-GFP
  inhibition at 10 µM: 0%

## C[C@H](NC(=O)c1cc(Cl)ccc1O)C1CCCCC1 [Compound 162, (S)-5-chloro-N-(1-cyclohexylethyl)-2-hydroxybenzamide]
HAdV5-GFP
  EC50: 510 nM
  inhibition at 10 µM: 100%

## O=C(NCC1CCOCC1)c1cc(Cl)ccc1O [Compound 163, 5-Chloro-2-hydroxy-N-((tetrahydro-2H-pyran-4-yl)methyl)benzamide]
HAdV5-GFP
  inhibition at 10 µM: 0%

## O=C(NCCC1CCCCC1)c1cc(Cl)ccc1O [Compound 165, 5-Chloro-N-(2-cyclohexylethyl)-2-hydroxybenzamide]
HAdV5-GFP
  EC50: 1000 nM
  IC50: 1 ± 0.1 µM

## CN1CCN(CCNC(=O)c2cc(Cl)ccc2O)CC1 [Compound 167, 5-Chloro-2-hydroxy-N-(2-(4-methylpiperazin-1-yl)ethyl)benzamide]
HAdV5-GFP
  inhibition at 10 µM: 0%

## O=C(NCCN1CCOCC1)c1cc(Cl)ccc1O [Compound 168, 5-Chloro-2-hydroxy-N-(2-morpholinoethyl)benzamide]
HAdV5-GFP
  EC50: 3730 nM
  inhibition at 10 µM: 0%

## O=C(c1cc(Cl)ccc1O)N1CCCCC1 [Compound 171]
HAdV5-GFP; HAdV5-GFP, 10 μM, low MOI, 293β5 cell line
  Plaque Assay (%) Inhibition (10 μM): 0.00 ± 0.00%

## CC(=O)N1CCN(C(=O)c2cc(Cl)ccc2O)CC1 [Compound 172, 1-(4-(5-Chloro-2-hydroxybenzoyl)piperazin-1-yl)ethanone]
HAdV5-GFP
  inhibition at 10 µM: 0%

## CN1CCN(C(=O)c2cc(Cl)ccc2O)CC1 [Compound 173, (5-Chloro-2-hydroxyphenyl)(4-methylpiperazin-1-yl)methanone]
HAdV5-GFP
  inhibition at 10 µM: 0%
